Experimental data published in ChEMBL document CHEMBL4270563, “Neurogenic and neuroprotective donepezil-flavonoid hybrids with sigma-1 affinity and inhibition of key enzymes in Alzheimer's disease” (Eur J Med Chem, 2018).
Active and inactive are the calls of the source. The rule behind the calls is not given here.

How the values were obtained:
Homo sapiens [1] = organism: Homo sapiens; assay: Selectivity index, ratio of IC50 for human serum BuChE to IC50 for recombinant human AChE expressed in HEK293 cells; type: cell-based
in vitro = conditions: PAMPA, pH 7.4
Description: Permeability of the compound in pH 7.4 PBS by PAMPA-BBB assay

SH-SY5Y [2] = assay: Neuroprotective activity against rotenone/oligomycin A-induced mitochondrial oxidative stress in human SH-SY5Y cells at 1 uM after 24 hrs by MTT assay relative to control; type: functional
SH-SY5Y [3] = assay: Neuroprotective activity against rotenone/oligomycin A-induced mitochondrial oxidative stress in human SH-SY5Y cells at 0.1 uM after 24 hrs by MTT assay relative to control; type: functional
SH-SY5Y [4] = assay: Neuroprotective activity against rotenone/oligomycin A-induced mitochondrial oxidative stress in human SH-SY5Y cells at 3 uM after 24 hrs by MTT assay relative to control; type: functional
SH-SY5Y [5] = assay: Neuroprotective activity against rotenone/oligomycin A-induced mitochondrial oxidative stress in human SH-SY5Y cells at 0.3 uM after 24 hrs by MTT assay relative to control; type: functional
Cholinesterase = Cholinesterase (Homo sapiens, UniProt P06276); assay: Inhibition of human serum BuChE using butyrylthiocholine as substrate pretreated for 5 mins followed by substrate addition and measured for 5 mins by Ellman's method
Acetylcholinesterase [6] = target: T1, Acetylcholinesterase (Homo sapiens, UniProt P22303); assay: Inhibition of recombinant human AChE expressed in HEK293 cells using acetylthiocholine iodide as substrate pretreated for 5 mins followed by substrate addition and measured for 5 mins by Ellman's method
SH-SY5Y [7] = assay: Neuroprotective activity against rotenone/oligomycin A-induced mitochondrial oxidative stress in human SH-SY5Y cells at 10 nM after 24 hrs by MTT assay relative to control; type: functional
[8] = target: T2, Amine oxidase [flavin-containing] A (Homo sapiens, UniProt P21397); assay: Inhibition of recombinant human MAO-A expressed in baculovirus infected BTI insect cells using p-tyramine as substrate pretreated for 15 mins followed by substrate addition by horse-radish peroxidase/amplex red-based fluorescence method
T2 sequence (P21397 whole entry): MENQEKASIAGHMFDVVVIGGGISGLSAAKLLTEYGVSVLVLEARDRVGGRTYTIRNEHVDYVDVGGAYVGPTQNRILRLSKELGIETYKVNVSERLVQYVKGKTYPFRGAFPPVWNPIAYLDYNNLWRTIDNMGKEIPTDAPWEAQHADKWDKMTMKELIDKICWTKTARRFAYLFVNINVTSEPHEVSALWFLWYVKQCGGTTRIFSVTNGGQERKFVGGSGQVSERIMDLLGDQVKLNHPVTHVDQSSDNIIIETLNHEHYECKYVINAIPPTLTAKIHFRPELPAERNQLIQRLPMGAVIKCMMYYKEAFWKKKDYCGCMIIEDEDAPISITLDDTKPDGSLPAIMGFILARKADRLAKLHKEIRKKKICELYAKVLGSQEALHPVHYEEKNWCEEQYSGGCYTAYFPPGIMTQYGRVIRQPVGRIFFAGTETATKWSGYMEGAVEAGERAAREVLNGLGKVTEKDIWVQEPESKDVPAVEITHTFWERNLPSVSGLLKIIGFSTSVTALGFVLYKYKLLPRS

[9] = Antioxidant activity assessed as trolox equivalent of AAPH-induced radical scavenging activity pretreated for 15 mins followed by APPH challenge measured every minute for 80 mins by ORAC-FL assay; type: functional
[10] = target: T3, Amine oxidase [flavin-containing] B (Homo sapiens, UniProt P27338); assay: biochemical; type: cell-based
T3 sequence (P27338 whole entry): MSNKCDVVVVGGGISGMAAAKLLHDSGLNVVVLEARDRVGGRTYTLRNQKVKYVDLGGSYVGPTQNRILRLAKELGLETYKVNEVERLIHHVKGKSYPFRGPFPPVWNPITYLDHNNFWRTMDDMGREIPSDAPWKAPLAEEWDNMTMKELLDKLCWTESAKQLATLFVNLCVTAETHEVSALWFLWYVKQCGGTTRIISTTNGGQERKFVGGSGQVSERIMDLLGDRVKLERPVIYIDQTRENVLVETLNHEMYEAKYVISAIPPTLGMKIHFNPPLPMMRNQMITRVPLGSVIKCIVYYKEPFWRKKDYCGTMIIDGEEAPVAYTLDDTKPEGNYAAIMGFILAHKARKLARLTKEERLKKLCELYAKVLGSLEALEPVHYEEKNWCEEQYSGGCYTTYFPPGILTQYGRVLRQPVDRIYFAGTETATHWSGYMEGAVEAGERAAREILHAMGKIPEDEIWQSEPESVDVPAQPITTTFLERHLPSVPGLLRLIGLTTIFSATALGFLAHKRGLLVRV
Description: Inhibition of recombinant human MAO-B expressed in baculovirus infected BTI insect cells using p-tyramine as substrate pretreated for 15 mins followed by substrate addition by horse-radish peroxidase/amplex red-based fluorescence method

[11] = target: Sigma non-opioid intracellular receptor 1 (Cavia porcellus, UniProt Q60492); assay: Displacement of (+)-[3H]pentazocine from guinea pig brain membrane sigma1 receptor by liquid scintillation counting method
[12] = target: T4, Sigma intracellular receptor 2 (Rattus norvegicus, UniProt Q5U3Y7); assay: Displacement of [3H]DTG from sigma2 receptor in rat liver membranes by liquid scintillation counting method; type: cell membranes, Membrane
T4 sequence (Q5U3Y7 whole entry): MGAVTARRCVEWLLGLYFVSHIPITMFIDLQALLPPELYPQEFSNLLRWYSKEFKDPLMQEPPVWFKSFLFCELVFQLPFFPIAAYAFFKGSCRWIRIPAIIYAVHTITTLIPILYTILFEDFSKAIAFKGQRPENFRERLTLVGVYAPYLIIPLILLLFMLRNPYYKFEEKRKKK

[13] = Selectivity ratio of Ki for displacement of [3H]DTG from sigma2 receptor in rat liver membranes to Ki for displacement of (+)-[3H]pentazocine from guinea pig brain membrane sigma1 receptor; type: cell membranes
[14] = target: T5, Polyunsaturated fatty acid 5-lipoxygenase (Homo sapiens, UniProt P09917); assay: Inhibition of human 5-lipoxygenase using arachidonic acid as substrate pretreated for 10 mins followed by substrate and ATP addition and measured after 20 mins by H2DCFDA probe based fluorescence assay
T5 sequence (P09917 whole entry): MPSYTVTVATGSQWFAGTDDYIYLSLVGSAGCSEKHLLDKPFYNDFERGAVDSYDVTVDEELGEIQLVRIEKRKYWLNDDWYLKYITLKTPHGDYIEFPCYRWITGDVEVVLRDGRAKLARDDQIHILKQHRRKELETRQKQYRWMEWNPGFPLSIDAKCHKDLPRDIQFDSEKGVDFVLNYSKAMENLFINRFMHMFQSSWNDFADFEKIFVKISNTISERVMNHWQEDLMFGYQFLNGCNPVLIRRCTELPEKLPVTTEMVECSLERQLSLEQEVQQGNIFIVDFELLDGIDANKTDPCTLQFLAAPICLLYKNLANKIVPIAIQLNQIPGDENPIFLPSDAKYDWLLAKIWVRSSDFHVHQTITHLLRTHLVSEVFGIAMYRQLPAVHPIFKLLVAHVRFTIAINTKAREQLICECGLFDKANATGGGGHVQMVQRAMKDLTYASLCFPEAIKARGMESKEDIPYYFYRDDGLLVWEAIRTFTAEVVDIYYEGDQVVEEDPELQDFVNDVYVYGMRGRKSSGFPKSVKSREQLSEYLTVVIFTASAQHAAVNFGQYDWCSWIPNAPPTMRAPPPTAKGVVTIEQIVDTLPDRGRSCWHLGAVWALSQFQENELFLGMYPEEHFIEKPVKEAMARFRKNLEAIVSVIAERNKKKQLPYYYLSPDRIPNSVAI

[15] = target: T6, Polyunsaturated fatty acid 5-lipoxygenase (Homo sapiens) (UniProt P09917); assay: Inhibition of human 5-lipoxygenase at 10 uM using arachidonic acid as substrate pretreated for 10 mins followed by substrate and ATP addition and measured after 20 mins by […] probe based fluorescence assay relative to control
T6 sequence (whole entry): T5 sequence (P09917 whole entry)

Acetylcholinesterase [16] = target: T1, Acetylcholinesterase; assay: Inhibition of recombinant human AChE expressed in HEK293 cells using varying levels of acetylthiocholine iodide as substrate by Lineweaver-burk plot analysis
Homo sapiens [17] = organism: Homo sapiens; assay: Selectivity ratio of IC50 for recombinant human MAO-B expressed in baculovirus infected BTI insect cells to IC50 for recombinant human MAO-A expressed in baculovirus infected BTI insect cells
[18] = Antioxidant activity assessed as trolox equivalent of AAPH-induced radical scavenging activity at 10 uM pretreated for 15 mins followed by APPH challenge measured every minute for 80 mins by ORAC-FL assay; type: functional
Mus musculus [19] = organism: Mus musculus; assay: Neurogenic activity in C57BL/6 mouse subgranular zone neural stem cell-derived neurospheres assessed as differentiation of neural stem cells at 10 uM treated for 7 days followed by poly-L-lysine addition and measured after 3 days by DAPI staining based confocal microscopic analysis; type: functional
Mus musculus [20] = organism: Mus musculus; assay: Neurogenic activity in C57BL/6 mouse subgranular zone neural stem cell-derived neurospheres assessed as neuronal maturation at 10 uM treated for 7 days followed by poly-L-lysine addition and measured after 3 days by DAPI staining based confocal microscopic analysis; type: functional
Homo sapiens [21] = organism: Homo sapiens; assay: Selectivity ratio of IC50 for recombinant human MAO-A expressed in baculovirus infected BTI insect cells to IC50 for recombinant human MAO-B expressed in baculovirus infected BTI insect cells

T1 sequence (P22303 whole entry): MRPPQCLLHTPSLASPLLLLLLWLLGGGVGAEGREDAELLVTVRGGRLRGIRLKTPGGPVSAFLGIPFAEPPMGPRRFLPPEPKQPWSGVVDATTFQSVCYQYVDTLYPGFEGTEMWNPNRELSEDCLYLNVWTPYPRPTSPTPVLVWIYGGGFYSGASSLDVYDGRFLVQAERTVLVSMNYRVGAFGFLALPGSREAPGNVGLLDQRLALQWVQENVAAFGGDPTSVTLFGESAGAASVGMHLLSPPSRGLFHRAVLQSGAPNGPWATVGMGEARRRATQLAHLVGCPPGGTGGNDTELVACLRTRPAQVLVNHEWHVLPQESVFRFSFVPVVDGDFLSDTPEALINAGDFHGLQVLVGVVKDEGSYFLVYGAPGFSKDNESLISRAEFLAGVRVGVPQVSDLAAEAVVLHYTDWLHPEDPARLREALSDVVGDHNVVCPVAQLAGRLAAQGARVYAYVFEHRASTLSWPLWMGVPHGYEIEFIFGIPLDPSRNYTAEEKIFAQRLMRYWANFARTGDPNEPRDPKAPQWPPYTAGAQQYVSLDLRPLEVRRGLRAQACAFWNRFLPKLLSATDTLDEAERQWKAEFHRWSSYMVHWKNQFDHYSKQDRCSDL
Cholinesterase, sequence (P06276 whole entry): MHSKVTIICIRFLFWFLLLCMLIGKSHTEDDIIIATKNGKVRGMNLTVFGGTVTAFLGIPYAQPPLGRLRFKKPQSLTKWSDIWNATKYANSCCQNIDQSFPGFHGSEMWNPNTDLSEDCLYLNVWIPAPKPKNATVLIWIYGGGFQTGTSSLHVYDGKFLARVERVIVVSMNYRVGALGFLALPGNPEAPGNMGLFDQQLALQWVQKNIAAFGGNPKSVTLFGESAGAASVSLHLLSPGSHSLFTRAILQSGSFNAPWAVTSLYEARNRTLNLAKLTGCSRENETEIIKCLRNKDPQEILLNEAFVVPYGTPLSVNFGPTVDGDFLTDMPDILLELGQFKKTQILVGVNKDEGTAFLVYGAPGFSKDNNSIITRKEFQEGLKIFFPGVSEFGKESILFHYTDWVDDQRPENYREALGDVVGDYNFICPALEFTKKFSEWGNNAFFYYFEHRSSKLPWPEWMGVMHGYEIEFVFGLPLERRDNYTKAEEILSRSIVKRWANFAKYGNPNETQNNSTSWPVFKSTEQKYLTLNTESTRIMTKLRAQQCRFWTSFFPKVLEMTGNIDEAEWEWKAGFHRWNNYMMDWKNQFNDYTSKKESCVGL
Sigma non-opioid intracellular receptor 1, sequence (Q60492 whole entry): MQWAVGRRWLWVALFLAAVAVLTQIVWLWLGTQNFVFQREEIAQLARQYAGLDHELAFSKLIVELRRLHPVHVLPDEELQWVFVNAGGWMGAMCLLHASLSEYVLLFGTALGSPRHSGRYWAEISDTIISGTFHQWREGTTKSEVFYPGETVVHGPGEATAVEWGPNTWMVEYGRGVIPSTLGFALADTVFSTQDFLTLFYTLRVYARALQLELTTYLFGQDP

Row | Compound | Ratio IC50 (Homo sapiens [1]) | Papp (in vitro) [nm/s] | Activity (SH-SY5Y [2]) [%] | Activity (SH-SY5Y [3]) [%] | Activity (SH-SY5Y [4]) [%] | Activity (SH-SY5Y [5]) [%] | IC50 (Cholinesterase) [µM] | IC50 (Acetylcholinesterase [6]) [µM] | IC50 [8] [µM] | Activity (umolequiv/umol) [9] | IC50 [10] [µM] | Ki [11] [µM] | Ki [12] [µM] | Ratio Ki [13] | IC50 [14] [µM] | also measured
1 | COc1ccc2oc(C(=O)NC3CCN(Cc4ccccc4)CC3)cc(=O)c2c1 | > 10 | 77 | 14.6 | 9.8 | 8.6 | 13.9 | > 10 | 0.97 | – | – | – | – | – | – | – | –
2 | COc1ccc2[nH]cc(CCNC(C)=O)c2c1 [MELATONIN] | – | – | – | – | – | – | – | – | – | – | – | – | – | – | – | Activity (SH-SY5Y [7]): 42.1%
3 | COc1cc2oc(C(=O)OCC3CCN(Cc4ccccc4)CC3)cc(=O)c2cc1OC | > 33 | 32 | 6.8 | 19.4 | 12.4 | 19.6 | > 10 | 0.3 | – | – | – | – | – | – | – | –
4 | COc1cc2oc(C(=O)NC3CCN(Cc4ccccc4)CC3)cc(=O)c2cc1OC | > 15 | 81 | 12.3 | 5.7 | 12.6 | 18 | > 10 | 0.66 | – | – | – | – | – | – | – | –
5 | O=C(NCCC1CCN(Cc2ccccc2)CC1)c1cc(=O)c2cc(O)ccc2[nH]1 | 33 | 51 | 17.4 | 18.6 | 29.7 | 13.7 | 9.88 | 0.3 | 51.3 | 1.4 | 59.9 | – | – | – | – | –
6 | O=C(NCCC1CCN(Cc2ccccc2)CC1)c1cc(=O)c2cc(O)ccc2o1 | > 110 | 28 | 8.6 | 15 | 15.2 | 18.8 | > 10 | 0.091 | 39.3 | 1.2 | 51.2 | 0.0421 | 0.345 | 8 | > 100 | inhibition [15]: 36%
7 | O=C(NCCC1CCN(Cc2ccccc2)CC1)c1cc(=O)c2cc([N+](=O)[O-])ccc2o1 | 443 | 82 | – | – | – | – | 9.3 | 0.021 | 20.5 | – | > 100 | 0.00098 | 0.287 | 293 | 9.8 | Ki (Acetylcholinesterase [16]): 0.012 µM; Ratio IC50 (Homo sapiens [17]): > 5; Activity [18]: inactive
8 | COc1cc2oc(C(=O)NCCC3CCN(Cc4ccccc4)CC3)cc(=O)c2cc1OC | > 217 | 59 | 17.1 | 11.5 | 22.4 | 18.1 | > 10 | 0.046 | 15.3 | – | 5.2 | 0.0374 | 0.239 | 6 | 74.3 | Ki (Acetylcholinesterase [16]): 0.039 µM; Activity (Mus musculus [19]): Active; Activity [18]: inactive; Activity (Mus musculus [20]): Active
9 | O=C(NCCC1CCN(Cc2ccccc2)CC1)c1cc(=O)c2cccc(O)c2[nH]1 | > 8.7 | 49 | – | – | – | – | > 10 | 1.15 | > 100 | 1 | 13.6 | 0.0474 | 0.29 | 6 | 77.6 | Ratio IC50 (Homo sapiens [21]): 7
